Values quoted from earlier work in the PKSmart pharmacokinetics tables (Seal et al. 2025).

Experiment: Lombardo, Berellini, Obach 2018, Drug Metab Dispos 46:1466, doi 10.1124/dmd.118.082966
Conditions: human; for MRT / Vd / clearance / half-life: in vivo, iv; for fraction unbound: plasma

Compound	MRT [h]	Vd [L/kg]	clearance [mL/min/kg]	half-life [h]	fraction unbound
O=C1c2cccc3c2[C@H](CCC3)CN1[C@@H]1CN2CCC1CC2	40	6.3	2.6	39	0.38
Cc1[nH]cnc1CN1CCc2c(c3ccccc3n2C)C1=O	2.1	1.1	8.7	1.6	–
COC(=O)C1=C(C)NC(C)=C(C(=O)OCCCN2CCC(c3ccccc3)(c3ccccc3)CC2)[C@@H]1c1cccc([N+](=O)[O-])c1	15	8.4	9.3	22	–
O=c1[nH]c(=O)n([C@@H]2O[C@H](CO)[C@H](O)[C@H](O)[C@H]2O)cc1F	3.95	0.33	1.38	4.21	–
COC(=O)C1=C(C)NC(C)=C(C(=O)OC(C)C)C1c1cccc2nonc12 (configuration not stated)	1	1.5	26	3.3	0.04
COc1cc(C2c3cc4c(cc3C(OC3OC5COC(C)OC5C(O)C3N(C)C)C3COC(=O)C23)OCO4)cc(OC)c1O (configuration not stated)	17	0.3	0.4	14	0.013
Cc1nc2c([nH]1)-c1ccccc1N(C(=O)c1ccc(NC(=O)c3ccccc3-c3ccccc3)cc1)CC2	4.2	0.76	–	6.7	–
CC(c1ccccn1)c1c(CCN(C)C)sc2ccccc12 (configuration not stated)	6.8	1.83	5.31	9.1	–
CN[C@@H]1[C@@H](O)[C@@H](O[C@@H]2[C@@H](O)[C@H](O[C@H]3O[C@H]([C@@H](C)N)CC[C@H]3N)[C@@H](N)C[C@H]2N)OC[C@]1(C)O	–	–	–	–	1
COc1ccnc(C[S+](O)c2nc3cc(-n4cccc4)ccc3[n-]2)c1C (configuration not stated)	4.32	0.19	0.73	3.59	–
CC[C@@H](C)N(C)C(=O)c1cc2ccccc2c(-c2ccccc2Cl)n1	5.4	1.7	5.9	3.7	–
O=C(O)C1/C(=C/CO)O[C@@H]2CC(=O)N12 (some centres not stated)	1	0.22	3.1	0.9	–
Nc1nc(=O)c2ncn(CCC(CO)CO)c2[nH]1	2.4	1.1	8.4	2.1	–
CCOc1nc2cccc(C(=O)O)c2n1Cc1ccc(-c2ccccc2-c2nnn[nH]2)cc1	5.9	0.13	0.37	9.7	0.002
CC(=O)OCC1=C(C(=O)O)N2C(=O)C(NC(=O)Cc3cccs3)[C@H]2SC1 (some centres not stated)	0.65	0.07	1.8	0.95	0.22
CCN(CC)CCNC(=O)c1cc(Br)c(N)cc1OC	4	3.1	13	2.9	0.6
NCCC(O)C(=O)N[C@@H]1C[C@H](N)[C@@H](O[C@H]2O[C@H](CN)CC[C@H]2N)[C@H](O)[C@H]1O[C@H]1O[C@H](CO)[C@@H](O)[C@H](N)[C@H]1O (some centres not stated)	2.73	0.21	1.28	2.46	–
CN1C(=O)C(O)C[C@H]1c1cccnc1 (some centres not stated)	7.9	0.85	1.8	5.9	–
CCCNC(=O)NS(=O)(=O)c1ccc(Cl)cc1	70	0.19	0.045	46	–
COc1cc2ncnc(Nc3ccc(F)c(Cl)c3)c2cc1OCCCN1CCOCC1	32	23	–	34	–
CCCCCCCCOCCOC(=O)CN(CC(=O)O)c1ccccc1OCCOc1ccccc1N(CC(=O)O)CC(=O)OCCOCCCCCCCC	1.3	1.1	14	3.5	–
CCOC(=O)Nc1ccc(NCc2ccc(F)cc2)cc1N	5	2.5	8.3	9	0.2
O=C1OC2(c3ccc(O)cc3Oc3cc(O)ccc32)c2ccccc21	1.8	0.14	1.3	1.6	0.11

Compound	MRT [h]	Vd [L/kg]	clearance [mL/min/kg]	half-life [h]	fraction unbound
COc1cccc2c1C(=O)c1c(O)c3c(c(O)c1C2=O)C[C@@](O)(C(C)=O)C[C@@H]3O[C@H]1C[C@H](N)[C@H](O)[C@H](C)O1	11.2	32	47.6	14.2	0.06
C[C@@H]1C=C2CC(=O)CCC2[C@H]2CC[C@]3(C)[C@@H](O)CC[C@H]3[C@H]12 (some centres not stated)	0.67	0.8	20	0.65	–
O=C(NCCN1CCOCC1)Nc1nc2ccc(Sc3nnc4ccc(-c5ccc(F)cc5)nn34)cc2s1	8.19	4.1	8.34	19.4	–
CC(CCc1ccccc1)NCC(O)c1ccc(O)c(C(N)=O)c1 (configuration not stated)	–	–	23	4.4	–
COc1nc(C(Cl)(Cl)Cl)c(Cl)c(OC)c1Cl	5.1	9.1	29.9	3.8	–
C#CCN(C)C(C)Cc1ccccc1 (configuration not stated)	1.6	1.9	20	1.3	–
CON=C(C(=O)NC1C(=O)N2C(C(=O)O)=C(CN3C=CN4NC=CC=C34)CS[C@H]12)c1nsc(N)n1 (some centres not stated)	2	0.24	2.1	1.7	0.74
CCC1C(=O)N(C)c2cnc(Nc3ccc(C(=O)NC4CCN(C)CC4)cc3OC)nc2N1C1CCCC1 (configuration not stated)	31.3	31.2	17.1	40.1	–
CC1(C)S[C@@H]2C(NC(=O)C(c3ccccc3)S(=O)(=O)O)C(=O)N2C1C(=O)O (some centres not stated)	1.6	0.15	1.6	1.2	0.5
CCC(C)(C)NCC(O)COc1ccccc1C(=O)CCc1ccccc1 (configuration not stated)	1.9	1.2	11	1.5	0.017
CC[N+](C)(C)c1cccc([O-])c1	1.9	1.1	9.6	1.8	–
O=[N+]([O-])O[C@H]1CO[C@H]2[C@@H]1OC[C@H]2O	2.3	0.86	6.2	1.9	–
CC(NC(CCc1ccccc1)C(=O)O)C(=O)N1Cc2ccccc2CC1C(=O)O (configuration not stated)	2.3	0.13	0.93	2.3	–
CCOCCn1c(C2CCN(CCc3ccc(C(C)(C)C(=O)O)cc3)CC2)nc2ccccc21	3.56	0.61	2.87	5.16	0.13
CC[N+](CC)(CC)CCOc1cccc(OCC[N+](CC)(CC)CC)c1OCC[N+](CC)(CC)CC	2.98	0.27	1.51	2.52	–
COc1cccc2c1C(=O)c1c(O)c3c(c(O)c1C2=O)C[C@@](O)(C(=O)CO)C[C@@H]3O[C@H]1C[C@H](N2CCO[C@H](OC)C2)[C@H](O)[C@H](C)O1	53.3	49	15.3	49.2	–
CCC[S@+](O)CCCN(CC)C[C@@H](O)COc1ccc(C#N)cc1	2.65	1.8	11.3	2.4	–
CCCCC(C)(C)[C@@H](O)/C=C\[C@@H]1[C@H](C/C=C/CCCC(=O)O)[C@@H](Cl)C[C@@H]1O	0.2	0.16	13.2	0.8	–
OC(CCN1CCCC1)(c1ccccc1)C1CCCCC1 (configuration not stated)	14	0.74	0.86	12	–
Cc1c(CN(C)C(=O)C=Cc2cnc3c(c2)CCC(=O)N3)oc2ccccc12	8.4	0.43	0.9	6.4	–
CO[C@H]1[C@@H](O)[C@H](N)[C@@H](O[C@H]2O[C@H]([C@H](C)N)CC[C@H]2N)[C@H](O)[C@H]1N(C)C(=O)CN	2.8	0.23	1.37	2	–
CCOC(Cc1ccc(OCCc2ccc(OS(C)(=O)=O)cc2)cc1)C(=O)O (configuration not stated)	56	0.13	0.039	45	–
CCC(=O)C1(c2cccc(O)c2)CCN(C)CC1	0.87	0.48	9.2	2.3	–

Compound	MRT [h]	Vd [L/kg]	clearance [mL/min/kg]	half-life [h]	fraction unbound
Cc1cc(O)c2c(=O)c3c(O)cc(O)c4c5c(O)cc(O)c6c(=O)c7c(O)cc(C)c8c1c2c(c34)c(c78)c65	32	0.25	0.13	42	–
CC1(C)S[C@@H]2C(/N=C/N3CCCCCC3)C(=O)N2C1C(=O)O (some centres not stated)	1	0.37	6.3	1.1	0.9
CCC1=NC(=O)C2CSSCC/C=C/[C@H](CC(=O)NC(C(C)C)C(=O)N2)OC(=O)C(C(C)C)NC1=O (some centres not stated)	2.6	–	7.4	11	0.07
CN(C)C(=O)Oc1cccc([N+](C)(C)C)c1	1.3	0.74	9.2	1.3	–
CC(=O)OC1=C2C(C)[C@@H](OC(=O)C(O)C(CC(C)C)NC(=O)OC(C)(C)C)[C@@H]3OC(=O)O[C@]3([C@@H](OC(=O)c3ccccc3)[C@@H]3[C@]4(OC(C)=O)CO[C@@H]4C[C@H](O)[C@@]3(C)C1=O)C2(C)C (some centres not stated)	28.4	13.8	8.12	30.1	–
COc1ccc2c(c1)c(CC(=O)O)c(C)n2C(=O)c1ccc(Cl)cc1	1.2	0.096	1.3	1.4	–
CCOc1ccc(Cc2cc(C3O[C@H](CO)[C@@H](O)[C@H](O)[C@H]3O)ccc2Cl)cc1 (some centres not stated)	9.5	1.7	3	12.2	0.09
N[C@@]1(C(=O)O)CS(=O)(=O)[C@H]2C(C(=O)O)[C@H]21 (some centres not stated)	1.44	0.21	2.4	1.23	–
CC1C(=O)O[C@H]2C[C@@]34[C@H]5C[C@@H](C(C)(C)C)C36C(O)C(=O)O[C@H]6OC4(C(=O)O5)[C@@]12O (some centres not stated)	4.6	0.62	2.3	3.8	–
C[C@H]1c2cccc(O)c2C(=O)C2=C(O)[C@]3(O)C(=O)C(C(N)=O)=C(O)[C@@H](N(C)C)[C@@H]3[C@@H](O)[C@@H]21	25	0.69	0.46	14	–
CCC(=O)O[C@]1(C(=O)SCF)[C@H](C)C[C@H]2[C@@H]3C[C@H](F)C4=CC(=O)C=C[C@]4(C)[C@@]3(F)[C@@H](O)C[C@@]21C	3.9	3.6	17	6	0.1
CN1CC(C(=O)N[C@]2(C)O[C@]3(O)[C@@H]4CCCN4C(=O)C(Cc4ccccc4)N3C2=O)C[C@@H]2c3cccc4[nH]cc(c34)C[C@H]21 (some centres not stated)	0.36	0.33	15.1	0.55	–
CCOCCO[C@@H]1CC[C@@H](C[C@@H](C)[C@@H]2CC(=O)C(C)=CC(C)[C@@H](O)C(OC)C(=O)C(C)C[C@H](C)/C=C/C=C/C=C(\C)[C@@H](OC)C[C@@H]3CC[C@@H](C)[C@@](O)(O3)C(=O)C(=O)N3CCCCC3C(=O)O2)C[C@H]1OC (some centres not stated)	60.9	44.5	12.2	93.9	–
CS(=O)(=O)c1ccc2c(c1)N(CCCN1CCC(C(N)=O)CC1)c1ccccc1S2	–	–	12.1	4	–
O=C(Nc1c(Cl)cncc1Cl)c1ccc(OC(F)F)c(OCC2CC2)c1	–	–	–	–	0.01
C=C1/C(=C\C=C2/CCC[C@]3(C)[C@@H]([C@H](C)CCCC(C)C)CC[C@@H]23)C[C@@H](O)C[C@@H]1O	–	–	0.82	48.6	–
O=C(O[C@H]1CC2CC[C@@H](C1)[N+]21CCCC1)C(O)(c1ccccc1)c1ccccc1	6.1	5.1	13.9	5	0.33
Oc1cc2cc(CCN3CCN(c4nsc5ccccc45)CC3)c(Cl)cc2[nH]1	3.3	1	5.1	3.1	–
CC(C(=O)O)c1ccc(C(=O)c2ccccc2)s1 (configuration not stated)	2.3	0.08	0.62	2.1	0.015
Cc1cnc(C(=O)NC2CCCCC/C=C\[C@@H]3C[C@@]3(C(=O)NS(=O)(=O)C3CC3)NC(=O)C3C[C@@H](Oc4nc5ccccc5c5ccccc45)CN3C2=O)cn1 (some centres not stated)	3.96	1.37	5.74	8.71	0.022
COc1ccccc1OCCNCC(O)COc1cccc2[nH]c3ccccc3c12 (configuration not stated)	2.8	1.3	7.8	2.4	–
NC(Cc1c[nH]c2ccc(O)cc12)C(=O)O (configuration not stated)	7.75	0.8	1.72	6.14	–
O=C1CN=C(c2ccccc2Cl)c2cc(Cl)ccc2N1	220	2.2	0.17	200	0.051
